The values that follow come from patent EP0031221B1, “Cyclic peptide nuclei” (ELI LILLY AND COMPANY, priority 1979, dated 1981).

For orientation: pKa means the negative logarithm of the acid dissociation constant. Read a high pKa as a weaker acid or stronger base. For orientation: zone of inhibition means the extent of the growth-free halo in a diffusion test. A word on the ED50: it is the midpoint of the dose-response relation. As usually defined, the MIC is the lowest concentration that inhibits growth of the organism.

Each structure is given as a SMILES string. Values after ≈ are worked out from the molar mass of the structure shown. Like-named read-outs stand apart in the source and are kept apart here. Starred links: 1 amine or outer side, 2 acyl side, 3 side chain; linkers in the order of their positions; H or OH if unused. Positions of bridges follow the written chain, without caps; N, C: chain ends. Non-standard residues stand in square brackets, D forms with d. Residues, ends and D or L forms follow the SMILES beside them. *: point of attachment. Orn(4R-OH,5R-OH) = O=C([C@H](C[C@@H](O)[C@@H](O)N[*:3])N[*:1])[*:2]; hTyr(3S-OH,4S-OH) = N[C@H](C(=O)O)[C@H](O)[C@@H](O)c1ccc(O)cc1; Pro(3S-OH,4S-Me) = C[C@H]1CN[C@H](C(=O)O)[C@H]1O; Benzoyl(4-octyloxy) = CCCCCCCCOc1ccc(C(=O)*)cc1; Gln(3R-OH) = NC(=O)C[C@@H](O)[C@H](N)C(=O)O; Hyp = O=C(O)[C@@H]1C[C@@H](O)CN1; Tridecanoyl = CCCCCCCCCCCCC(=O)*; Myristoyl = CCCCCCCCCCCCCC(=O)*; Lauroyl = CCCCCCCCCCCC(=O)*; 4Abz = Nc1ccc(C(=O)O)cc1

A short description of one data set: physchem. Particulars: 66% aqueous dimethylformamide, pH 7.32.
A further data set in a line: in vivo. Particulars: mouse, po, 416 mg/kg.
Data set [1] concerns Saccharomyces pastorianus X—52. The experiment in a line: Agar-plate disc-diffusion test (zone of inhibition). Type of data set: cell-based. Particulars: methanol suspension 1 mg/ml, 7-mm disc, incubation 24—48 hours at 25—37°C. As for the experimental part:
(§1) In Table IV activity is measured by the size (diameter in mm) of the observed zone of inhibition of the microorganism produced by the test compound. In Table V activity is measured by the minimal inhibitory concentration (MIC) of the substance (mg/disc) required to inhibit growth of the test organism. Table VI gives the results of the testing in vitro of the p-(n-octyloxy)benzoyl derivative of A-30912A nucleus against five strains of Candida albicans by the agar-dilution method. In Table VI activity is measured by the minimal inhibitory concentration (MIC) of the substance (mg/ml) required to inhibit the test organism.
On the technique in general: Agar diffusion results depend on both activity and mobility in agar.

For another data set, the system named is Neurospora crassa 846. The data set is described as above. In kind it is cell-based. The note with it: methanol suspension 1 mg/ml, 7-mm disc, 24—48 hours at 25—37°C, * = distinct zone with regrowth of organism around disc. As for the experimental part:
as §1

The subject of data set [2] is Trichophyton mentagrophytes A—23. The data set is described as above. Type of data set: cell-based. Particulars: read-out: Size of Zone of Inhibition (mm). As for the experimental part: as §1
The subject of the next data set is Candida albicans A-26. Nature of the data set: Therapeutic activity against systemic C. albicans infection in mice. Type of data set: in vivo. As for the experimental part:
The results of in vivo tests to evaluate the effectiveness of the derivatives against an infection caused by Candida albicans A-26 in mice are given in Table VII. In these tests activity is measured by the ED50 value (the dose in mg/kg required to cure 50% of the test animals). Where an ED50 value was not obtained, activity is indicated by the lowest dose at which a significant antifungal effect is observed. In these tests, groups of male albino mice (specific pathogen free), weighing 18 to 20 grams, are infected intravenously with Candida albicans A-26. The animals are X-irradiated 24 hours prior to infection at about 50 roentgens per minute for 8 minutes (400 total dose) to reduce immune responses to the infecting organism. At 0, 4, and 24 hours post infection each group of mice is given graded doses subcutaneously of the test compound as a suspension in 33% polyethylene glycol(PEG)-water. The day of death for each animal is recorded.

The nature of data set [3]: Blood levels after oral administration in mice (bioassay vs. Aspergillus montevidensis). Particulars: mouse, 416 mg/kg.
Method: (§2) At time intervals, blood samples are taken from the orbital sinus and are assayed for antibiotic activity as follows: A 7-mm disc containing 20 ml of whole blood is placed on agar seeded with Aspergillus montevidensis A35137. After 40 hours incubation at 30°C, zones of inhibition from the blood samples are compared to a standard obtained from the test compound, and the amount of compound in the blood sample is calculated.
Data set [4] relates to Candida albicans. Nature of the data set: Agar-dilution MIC against five Candida albicans strains. The note with it: agar-dilution method. Type of data set: cell-based. As for the experimental part: as §1
Data set [5] concerns Candida albicans. The note with it: characteristics from German Offenlegungschrift 2,628,965 / U.S. Patent 4,173,629; cited from earlier work.
Where [6] appears, read: Saccharomyces pastorianus X—52, read-out: Size of Zone of Inhibition (mm).
Where [7] appears, read: Neurospora crassa 846, read-out: Size of Zone of Inhibition (mm).
[8] abbreviates: Candida albicans, A26, light or radiation study, sc, X-irradiated mice infected i.v. with C. albicans A-26, subcutaneous doses at 0, 4 and 24 hours, lowest dose with significant antifungal effect (survival time), read-out: Lowest Active Dose.
Where [9] appears, read: Candida albicans, A26, light or radiation study, sc, X-irradiated mice infected i.v. with C. albicans A-26, subcutaneous doses at 0, 4 and 24 hours post infection, suspension in PEG-water, dose curing 50% of animals, read-out: ED50.

Method for in vivo: as §2

With `C[C@@H](O)[C@@H]1NC(=O)[C@H]([C@H](O)[C@@H](O)c2ccc(O)cc2)NC(=O)[C@@H]2C[C@@H](O)CN2C(=O)[C@H]([C@@H](C)O)NC(=O)[C@@H](N)C[C@@H](O)[C@@H](O)NC(=O)[C@@H]2[C@@H](O)[C@@H](C)CN2C1=O` [A-30912A nucleus] (H-[Orn(4R-OH,5R-OH)]T[Hyp][hTyr(3S-OH,4S-OH)]T[Pro(3S-OH,4S-Me)]; lactam 1-C), the pKa in “physchem” is ~7.35.
Consider `CCCCCCCCCCCCC(=O)N[C@H]1C[C@@H](O)[C@@H](O)NC(=O)[C@@H]2[C@@H](O)[C@@H](C)CN2C(=O)[C@H]([C@@H](C)O)NC(=O)[C@H]([C@H](O)[C@@H](O)c2ccc(O)cc2)NC(=O)[C@@H]2C[C@@H](O)CN2C(=O)[C@H]([C@@H](C)O)NC1=O` [Reference Example 1] (Tridecanoyl-[Orn(4R-OH,5R-OH)]T[Hyp][hTyr(3S-OH,4S-OH)]T[Pro(3S-OH,4S-Me)]; lactam 1-C), for which, in “in vivo”, the concentration at 4 h was determined as 100 µg/mL. For the same molecule, the zone of inhibition at 1000 µg/mL in data set [1] (setting [6]) worked out at 21 mm; in the data set on Neurospora crassa 846 (setting [7]), 32 mm; in data set [2] (Trichophyton mentagrophytes A—23, methanol suspension 1 mg/ml, 7-mm disc, 24—48 hours at 25—37°C, * = distinct zone with regrowth of organism around disc), 60 mm. Moreover, the minimal effective dose in the data set with Candida albicans A-26 (setting [8]) came out at 20 mg/kg. Also, the median effective dose (ED50) with Candida albicans A-26 (setting [9]) came to 34 mg/kg.
On to `CCCCCCCCCCCC(=O)Nc1ccc(C(=O)N[C@H]2C[C@@H](O)[C@@H](O)NC(=O)[C@@H]3[C@@H](O)[C@@H](C)CN3C(=O)[C@H]([C@@H](C)O)NC(=O)[C@H]([C@H](O)[C@@H](O)c3ccc(O)cc3)NC(=O)[C@@H]3C[C@@H](O)CN3C(=O)[C@H]([C@@H](C)O)NC2=O)cc1` [Reference Example 7, N-(n-dodecanoyl)-p-aminobenzoyl derivative of A-30912A nucleus] ({Lauroyl-4Abz}-[Orn(4R-OH,5R-OH)]T[Hyp][hTyr(3S-OH,4S-OH)]T[Pro(3S-OH,4S-Me)]; lactam 1-C), for which the concentration at 4 h in [3] is 830 µg/mL. For the same molecule, the zone of inhibition at 1000 µg/mL in [1] (Saccharomyces pastorianus, 48 h, read-out: Size of Zone of Inhibition (mm), Saccharomyces pastorianus X—52) was 21 mm; in the data set with Neurospora crassa 846 (Neurospora crassa, 846, 48 h, read-out: Size of Zone of Inhibition (mm), Neurospora crassa 846) it was 33 mm; in [2] (Trichophyton mentagrophytes, 48 h) it was 55 mm. In the data set with Candida albicans A-26 (Candida albicans, A26, light or radiation study, sc), this molecule registered an ED50 of 15 mg/kg. In addition, the minimal effective dose in the data set on Candida albicans A-26 (Candida albicans, A26, light or radiation study, sc, read-out: Lowest Active Dose (mg/kg), X-irradiated mice infected i.v. with C. albicans A-26, subcutaneous doses at 0, 4 and 24 hours, lowest dose with significant antifungal effect (survival time)) came out at 10 mg/kg.
Consider `CCCCCCCCOc1ccc(C(=O)N[C@H]2C[C@@H](O)[C@@H](O)NC(=O)[C@@H]3[C@@H](O)[C@@H](C)CN3C(=O)[C@H]([C@@H](C)O)NC(=O)[C@H]([C@H](O)[C@@H](O)c3ccc(O)cc3)NC(=O)[C@@H]3C[C@@H](O)CN3C(=O)[C@H]([C@@H](C)O)NC2=O)cc1` [Reference Example 13, p-(n-octyloxy)benzoyl derivative of A-30912A nucleus] ({Benzoyl(4-octyloxy)}-[Orn(4R-OH,5R-OH)]T[Hyp][hTyr(3S-OH,4S-OH)]T[Pro(3S-OH,4S-Me)]; lactam 1-C), for which, in data set [3], the concentration at 4 h stood at 23000 µg/mL. The zone of inhibition at 1000 µg/mL in data set [1] (setting [6]) stood at 18 mm; in the data set on Neurospora crassa 846 (setting [7]) it was 23 mm. Moreover, the minimal effective dose with Candida albicans A-26 (setting [8]) was found to be 10 mg/kg. The ED50 worked out at 13 mg/kg in the data set with Candida albicans A-26 (setting [9]); 22.2 mg/kg in the data set with Candida albicans A-26 (X-irradiated mice infected i.v. with C. albicans A-26, subcutaneous doses at 0, 4 and 24 hours post infection, suspension in PEG-water, dose curing 50% of animals). The “Lowest Active Dose” value in the data set on Candida albicans A-26 (X-irradiated mice infected i.v. with C. albicans A-26, subcutaneous doses at 0, 4 and 24 hours, lowest dose with significant antifungal effect (survival time)) was >12.5 mg/kg. Also, the MIC was determined as 0.312 µg/mL (≈ 0.303 µM) with Candida albicans [4] (Candida albicans strain A26, read-out: MIC); 0.312 µg/mL (≈ 0.303 µM) in the data set on Candida albicans [4] (Candida albicans strain SBH 16); 0.312 µg/mL (≈ 0.303 µM) with Candida albicans [4] (Candida albicans strain SBH 28); 0.312 µg/mL (≈ 0.303 µM) in the data set with Candida albicans [4] (Candida albicans strain SBH 29); 0.312 µg/mL (≈ 0.303 µM) against Candida albicans [4] (Candida albicans strain SBH 31).
Regarding `CCCCCCCCCCCCCC(=O)N[C@H]1C[C@@H](O)[C@@H](O)NC(=O)[C@@H]2[C@@H](O)[C@@H](C)CN2C(=O)[C@H]([C@H](O)CC(N)=O)NC(=O)[C@H]([C@H](O)[C@@H](O)c2ccc(O)cc2)NC(=O)[C@@H]2C[C@@H](O)CN2C(=O)[C@H]([C@@H](C)O)NC1=O` [S 31794/F-1] (Myristoyl-[Orn(4R-OH,5R-OH)]T[Hyp][hTyr(3S-OH,4S-OH)][Gln(3R-OH)][Pro(3S-OH,4S-Me)]; lactam 1-C), the antifungal activity entry with Candida albicans [5] was “has antifungal activity, especially against Candida albicans”.
